For eight compounds, GI50 and TGI results are on record in PubChem BioAssay (NCI).

Several values for one entry are separate records, joined by “and”; a condition that tells them apart may be missing. Equal entries are not always repeated.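 Protocol summary: plate cells (96-well), add compound at 5 concentrations, incubate 48 h, interpolate endpoints linearly. GI50 is the concentration that inhibits growth by half. TGI denotes the concentration required for complete inhibition of growth.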 Bounds are passed on as bounds.

Test systems include T-47D breast; SK-OV-3 ovarian; OVCAR-5 ovarian; SNB-19 CNS; UACC-62 melanoma; MOLT-4 leukemia; M14 melanoma; COLO 205 colon; SW-620 colon; RXF 393 renal.
Holding throughout (experiment): growth of human tumour cells (NCI), 48 h

With `O=C(/C=C\n1cnc(-c2cc(C(F)(F)F)cc(C(F)(F)F)c2)n1)NNc1cnccn1`, the GI50 with T-47D breast is 143 nM; in the test with SK-OV-3 ovarian, 643 nM; with OVCAR-5 ovarian it was 189 nM; with SNB-19 CNS, 142 nM; in the test on UACC-62 melanoma it was 232 nM; in the test on MOLT-4 leukemia it was 31.2 nM. Further, the GI50 is 311 nM with M14 melanoma, 51.5 nM with COLO 205 colon, 47.2 nM in the test with SW-620 colon and 28 nM in the test with RXF 393 renal. For the same compound, the TGI with T-47D breast is 15700 nM; in the test with SK-OV-3 ovarian, 25300 nM; in the test with OVCAR-5 ovarian, 16300 nM; with SNB-19 CNS it was 13400 nM; in the test on UACC-62 melanoma it was 6830 nM; in the test on MOLT-4 leukemia, > 100000 nM. Also, the TGI came to 9040 nM in the test on M14 melanoma, 5280 nM with COLO 205 colon, 13300 nM in the test on SW-620 colon and 225 nM with RXF 393 renal.

For the compound `CCCCN1CSC(=S)N(Cc2ccccc2)C1`, the TGI in the test with T-47D breast is > 100000 nM; in the test with SK-OV-3 ovarian, > 100000 nM; in the test on OVCAR-5 ovarian, > 100000 nM; in the test with SNB-19 CNS it was > 100000 nM; in the test on UACC-62 melanoma, > 100000 nM; in the test with MOLT-4 leukemia, 78200 nM. Further, the TGI with M14 melanoma is > 100000 nM; in the test with COLO 205 colon, 50600 nM; in the test with SW-620 colon it was > 100000 nM; in the test on RXF 393 renal, > 100000 nM.

As for `CON(C)C(=O)N1N=C(c2cc(F)ccc2F)SC1(CCCN)c1ccccc1` (configuration not stated), the GI50 is 27.9 nM and < 10 nM in the test on T-47D breast; < 10 nM in the test on SK-OV-3 ovarian; 57.6 nM and < 10 nM in the test with OVCAR-5 ovarian; 109 nM and < 13.2 nM with SNB-19 CNS; 61.8 nM and < 10 nM with UACC-62 melanoma; 54.7 nM and < 10 nM in the test with MOLT-4 leukemia. In addition, the GI50 with M14 melanoma, in the test on COLO 205 colon, with SW-620 colon and in the test with RXF 393 renal was < 10 nM throughout. Moreover, the TGI with T-47D breast is 18700 nM and 18200 nM; with SK-OV-3 ovarian, 12600 nM and 12800 nM; in the test with OVCAR-5 ovarian it was 15100 nM and 15800 nM; with SNB-19 CNS, 23200 nM and 23700 nM; in the test on UACC-62 melanoma, 18800 nM and 16200 nM; with MOLT-4 leukemia, 20000 nM and 18200 nM. Also, the TGI in the test with M14 melanoma was 11200 nM and 4380 nM; in the test on SW-620 colon it was 15600 nM and 16000 nM; with RXF 393 renal it was 756 nM.

Regarding `COc1cc(NS(=O)(=O)c2ccc(-c3cnc(C4CC4)o3)cc2)ccc1F`, the GI50 in the test with T-47D breast is 436 nM; in the test with SK-OV-3 ovarian it was 606 nM; in the test on OVCAR-5 ovarian it was 1150 nM; in the test on SNB-19 CNS, 441 nM; in the test with UACC-62 melanoma it was 313 nM; in the test with MOLT-4 leukemia it was 564 nM. Besides, the GI50 in the test on M14 melanoma is 269 nM; with COLO 205 colon it was 506 nM; in the test with SW-620 colon, 287 nM; in the test on RXF 393 renal it was 276 nM. The TGI with T-47D breast is 38900 nM; in the test with SK-OV-3 ovarian it was 34600 nM; in the test with OVCAR-5 ovarian, 29500 nM; in the test with SNB-19 CNS, 24500 nM; with UACC-62 melanoma it was 13800 nM; in the test on MOLT-4 leukemia, > 100000 nM. Moreover, the TGI in the test on M14 melanoma is 14800 nM; in the test on COLO 205 colon, 9570 nM; in the test on SW-620 colon, > 61300 nM; in the test on RXF 393 renal it was 6520 nM.

As to `Cc1ccc2c3c(c(=O)[nH]c2c1)C1(C(C#N)=C(N)O3)c2cc(Br)ccc2-c2ccc(Br)cc21`, the GI50 is 1680 nM with T-47D breast; 2470 nM in the test with SK-OV-3 ovarian; 2020 nM with OVCAR-5 ovarian; 2120 nM with SNB-19 CNS; 2190 nM with UACC-62 melanoma; 2920 nM in the test on MOLT-4 leukemia. Also, the GI50 with M14 melanoma is 4230 nM; in the test with COLO 205 colon it was 1870 nM; in the test on SW-620 colon, 1860 nM; in the test with RXF 393 renal, 1530 nM. Further, the TGI with T-47D breast came to 3780 nM; in the test with SK-OV-3 ovarian it was 6450 nM; in the test on OVCAR-5 ovarian, 4750 nM; in the test with SNB-19 CNS, 6010 nM; in the test with UACC-62 melanoma it was 11300 nM; with MOLT-4 leukemia, 10100 nM. In addition, the TGI in the test on M14 melanoma was 17000 nM; in the test with COLO 205 colon, 3820 nM; in the test with SW-620 colon it was 4220 nM; in the test on RXF 393 renal it was 3130 nM.

As for `COC(=O)c1c(C)[nH]c(/C=C2\N=C(c3ccc[nH]3)C=C2OC)c1C`, the GI50 with T-47D breast is 816 nM; in the test on SK-OV-3 ovarian, 2690 nM; with OVCAR-5 ovarian, 1400 nM; in the test with SNB-19 CNS, 1870 nM; in the test with UACC-62 melanoma it was 287 nM; in the test with MOLT-4 leukemia, 49.5 nM. Moreover, the GI50 in the test on M14 melanoma is 209 nM; with COLO 205 colon it was 288 nM; in the test on SW-620 colon, 36.5 nM; in the test on RXF 393 renal, 515 nM. Further, the TGI is 3990 nM with T-47D breast; > 100000 nM in the test on SK-OV-3 ovarian; 3900 nM in the test on OVCAR-5 ovarian; > 100000 nM in the test on SNB-19 CNS; 921 nM in the test on UACC-62 melanoma; > 36500 nM in the test with MOLT-4 leukemia. Moreover, the TGI came to 619 nM with M14 melanoma, 1600 nM in the test on COLO 205 colon and 4270 nM in the test with RXF 393 renal.

As to `COc1cc2c3c(n(C)c(=O)c2cc1OC)-c1cc2c(cc1/C3=C\CNCCCN)OCO2`, the TGI in the test on T-47D breast was 3020 nM; in the test on SK-OV-3 ovarian, > 88200 nM; in the test on OVCAR-5 ovarian, 18900 nM; in the test with SNB-19 CNS it was 10400 nM; in the test on UACC-62 melanoma, 1120 nM; in the test with MOLT-4 leukemia, 50.2 nM. Also, the TGI in the test on M14 melanoma came to 5310 nM; in the test with COLO 205 colon, 8710 nM; with SW-620 colon, 3940 nM; in the test with RXF 393 renal it was 7100 nM. For the same compound, the GI50 in the test on SK-OV-3 ovarian was 1260 nM; with OVCAR-5 ovarian, 1280 nM; with SNB-19 CNS, 261 nM; in the test with UACC-62 melanoma it was 214 nM; in the test on MOLT-4 leukemia, 11.8 nM; in the test with M14 melanoma, 585 nM. Moreover, the GI50 in the test with COLO 205 colon was 232 nM; in the test with SW-620 colon, 222 nM; with RXF 393 renal, 1690 nM.

Take `CCN(CC)CCCC(C)Nc1cnc(C(=O)Nc2cccc3ccc(OC)nc23)cn1` (configuration not stated): the GI50 with T-47D breast was 1850 nM; with SK-OV-3 ovarian it was 15000 nM; with OVCAR-5 ovarian it was 1810 nM; in the test on SNB-19 CNS it was 3110 nM; in the test on UACC-62 melanoma it was 1790 nM; in the test on MOLT-4 leukemia it was 2040 nM. Moreover, the GI50 is 1930 nM in the test on M14 melanoma, 1770 nM with COLO 205 colon, 1780 nM in the test on SW-620 colon and 1250 nM with RXF 393 renal. Also, the TGI with T-47D breast was determined as 3950 nM; in the test on SK-OV-3 ovarian, 28400 nM; in the test on OVCAR-5 ovarian, 3780 nM; with SNB-19 CNS, 10900 nM; in the test on UACC-62 melanoma, 3210 nM; in the test on MOLT-4 leukemia it was 4670 nM. Further, the TGI in the test on M14 melanoma is 3710 nM; in the test on COLO 205 colon, 3460 nM; in the test with SW-620 colon it was 3430 nM; in the test with RXF 393 renal, 2860 nM.
